Results as given in patent publication US12304910B2, “Janus kinase (JAK) family inhibitor, preparation of same, and applications thereof” (JIANGSU VCARE PHARMATECH CO., LTD., priority 2019, dated 2025).

Legend:
[1] = target: T1, JAK3 (Homo sapiens, UniProt P52333); assay: Kinase activity test (γ33P-ATP isotopic method), JAK3; type: biochemical; details: 33P-ATP 10 μM, 2 h reaction
T1 sequence (P52333 1-1124): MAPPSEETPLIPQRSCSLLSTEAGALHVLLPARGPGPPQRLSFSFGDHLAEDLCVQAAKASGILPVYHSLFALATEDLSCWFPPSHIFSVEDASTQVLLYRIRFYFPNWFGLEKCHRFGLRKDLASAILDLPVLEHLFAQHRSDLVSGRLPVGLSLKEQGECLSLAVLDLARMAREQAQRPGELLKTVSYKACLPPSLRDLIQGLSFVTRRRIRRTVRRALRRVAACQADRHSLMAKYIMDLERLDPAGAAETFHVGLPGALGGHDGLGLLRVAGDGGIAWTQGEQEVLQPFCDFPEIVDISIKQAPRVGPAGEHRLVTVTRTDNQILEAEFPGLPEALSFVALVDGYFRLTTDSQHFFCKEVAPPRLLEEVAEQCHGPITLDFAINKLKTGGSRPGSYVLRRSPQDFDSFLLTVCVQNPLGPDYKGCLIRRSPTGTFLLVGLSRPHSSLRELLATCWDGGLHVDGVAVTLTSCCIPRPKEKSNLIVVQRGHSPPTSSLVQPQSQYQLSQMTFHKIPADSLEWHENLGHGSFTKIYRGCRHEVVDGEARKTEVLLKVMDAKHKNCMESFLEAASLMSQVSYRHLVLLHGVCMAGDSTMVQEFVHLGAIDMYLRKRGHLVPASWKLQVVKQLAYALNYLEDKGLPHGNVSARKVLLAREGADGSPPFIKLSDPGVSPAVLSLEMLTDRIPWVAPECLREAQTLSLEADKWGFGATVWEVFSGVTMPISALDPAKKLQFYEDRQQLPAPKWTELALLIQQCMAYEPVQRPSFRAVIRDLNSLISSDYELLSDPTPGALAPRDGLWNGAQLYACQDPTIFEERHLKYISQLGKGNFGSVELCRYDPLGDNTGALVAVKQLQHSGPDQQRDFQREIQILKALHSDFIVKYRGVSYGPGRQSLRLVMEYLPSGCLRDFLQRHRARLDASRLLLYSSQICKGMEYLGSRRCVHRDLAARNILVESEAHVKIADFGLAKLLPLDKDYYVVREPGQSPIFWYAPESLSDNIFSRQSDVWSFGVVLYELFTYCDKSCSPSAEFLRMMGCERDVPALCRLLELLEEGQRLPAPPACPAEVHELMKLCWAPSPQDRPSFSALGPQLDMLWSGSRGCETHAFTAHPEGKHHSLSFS
Experimental: (§1) This experiment adopted a γ^33p-ATP isotopic test method to test the inhibitory effect of a compound on kinases JAK1, JAK2, JAK3 and TYK2, and obtained a half inhibitory concentration IC50 of the compound for inhibiting activity of the kinase.
(§2) 20 mM 4-hydroxyethylpiperazine ethanesulfonic acid buffer (Hepes, pH 7.5), 10 mM magnesium chloride (MgCl2), 1 mM ethylene glycol diethyl ether diamine tetraacetic acid (EGTA), 0.02% dodecyl polyethylene glycol ether (Brij35), 0.02 mg/ml bovine serum albumin (BSA), 0.1 mM sodium vanadate (Na3VO4), 2 mM dithiothreitol (DTT), and 1% dimethylsulfoxide (DMSO).
(§3) A compound is dissolved with 100% DMSO to a specific concentration, and then subjected to gradient dilution by an automatic sampling device to obtain the samples to be tested with different concentrations (DMSO solutions).
(§4) 3.1 diluting the reaction substrate with the basic reaction buffer;
(§5) 3.2 adding the kinase into the substrate solution, and gently mixing well;
(§6) 3.3 adding, by the automatic sampling system, the 100% DMSO diluted compounds with different concentrations into the kinase solution, and incubating for 20 min at room temperature; and
(§7) 3.4 adding ^33p-ATP (10 μM, 10 μCi/μl) at room temperature to initiate the kinase reaction for a duration of 2 h.
(§8) The unreacted ATP and the reaction-generated […] in the reaction were removed by an ion exchange filtering system, and then the amount of radioactivity of ^33p isotope in the substrate was detected.
(§9) According to the amount of radioactivity, the kinase activities in the systems added with the inhibitors of different concentrations were calculated, to obtain the inhibitors' effects of the compounds of different concentrations on the kinase activity; and fitting was performed with graphpad prism to obtain the inhibitory IC50 values of the compounds.

[2] = target: JAK2 (Homo sapiens, UniProt O60674); assay: Kinase activity test (γ33P-ATP isotopic method), JAK2; type: biochemical; details: 33P-ATP 10 μM, 2 h reaction
JAK2, sequence (O60674 whole entry): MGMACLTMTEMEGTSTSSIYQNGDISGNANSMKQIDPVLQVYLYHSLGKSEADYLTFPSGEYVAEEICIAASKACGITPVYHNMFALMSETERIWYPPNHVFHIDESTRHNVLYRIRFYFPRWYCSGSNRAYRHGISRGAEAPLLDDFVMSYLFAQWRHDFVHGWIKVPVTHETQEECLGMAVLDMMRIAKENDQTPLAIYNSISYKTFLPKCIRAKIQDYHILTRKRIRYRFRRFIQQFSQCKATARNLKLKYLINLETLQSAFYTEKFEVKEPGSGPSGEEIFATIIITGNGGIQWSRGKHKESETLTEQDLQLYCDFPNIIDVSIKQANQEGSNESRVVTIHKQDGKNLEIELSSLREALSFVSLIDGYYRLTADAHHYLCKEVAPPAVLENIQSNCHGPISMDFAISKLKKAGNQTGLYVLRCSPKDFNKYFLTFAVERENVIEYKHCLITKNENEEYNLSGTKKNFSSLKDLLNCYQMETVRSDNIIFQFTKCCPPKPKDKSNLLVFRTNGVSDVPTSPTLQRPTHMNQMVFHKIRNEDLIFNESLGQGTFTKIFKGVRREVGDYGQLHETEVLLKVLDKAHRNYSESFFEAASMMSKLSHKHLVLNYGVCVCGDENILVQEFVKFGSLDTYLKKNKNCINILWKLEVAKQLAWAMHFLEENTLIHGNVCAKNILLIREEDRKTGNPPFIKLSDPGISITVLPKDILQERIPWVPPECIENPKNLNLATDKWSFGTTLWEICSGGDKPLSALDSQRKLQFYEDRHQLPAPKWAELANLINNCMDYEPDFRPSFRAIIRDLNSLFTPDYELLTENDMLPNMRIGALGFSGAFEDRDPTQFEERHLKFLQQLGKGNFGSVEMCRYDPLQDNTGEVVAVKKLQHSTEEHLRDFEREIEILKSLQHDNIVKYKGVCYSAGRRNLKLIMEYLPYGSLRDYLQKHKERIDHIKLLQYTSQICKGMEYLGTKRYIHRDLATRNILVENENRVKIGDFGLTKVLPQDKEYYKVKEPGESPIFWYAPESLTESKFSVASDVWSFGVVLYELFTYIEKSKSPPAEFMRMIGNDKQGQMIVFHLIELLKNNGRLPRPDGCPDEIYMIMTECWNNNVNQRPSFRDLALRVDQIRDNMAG
Experimental: as §1, §2, §3, §4, §5, §6, §7, §8, §9

[3] = target: TYK2 (Homo sapiens, UniProt P29597); assay: Kinase activity test (γ33P-ATP isotopic method), TYK2; type: biochemical; details: 33P-ATP 10 μM, 2 h reaction
TYK2, sequence (P29597 whole entry): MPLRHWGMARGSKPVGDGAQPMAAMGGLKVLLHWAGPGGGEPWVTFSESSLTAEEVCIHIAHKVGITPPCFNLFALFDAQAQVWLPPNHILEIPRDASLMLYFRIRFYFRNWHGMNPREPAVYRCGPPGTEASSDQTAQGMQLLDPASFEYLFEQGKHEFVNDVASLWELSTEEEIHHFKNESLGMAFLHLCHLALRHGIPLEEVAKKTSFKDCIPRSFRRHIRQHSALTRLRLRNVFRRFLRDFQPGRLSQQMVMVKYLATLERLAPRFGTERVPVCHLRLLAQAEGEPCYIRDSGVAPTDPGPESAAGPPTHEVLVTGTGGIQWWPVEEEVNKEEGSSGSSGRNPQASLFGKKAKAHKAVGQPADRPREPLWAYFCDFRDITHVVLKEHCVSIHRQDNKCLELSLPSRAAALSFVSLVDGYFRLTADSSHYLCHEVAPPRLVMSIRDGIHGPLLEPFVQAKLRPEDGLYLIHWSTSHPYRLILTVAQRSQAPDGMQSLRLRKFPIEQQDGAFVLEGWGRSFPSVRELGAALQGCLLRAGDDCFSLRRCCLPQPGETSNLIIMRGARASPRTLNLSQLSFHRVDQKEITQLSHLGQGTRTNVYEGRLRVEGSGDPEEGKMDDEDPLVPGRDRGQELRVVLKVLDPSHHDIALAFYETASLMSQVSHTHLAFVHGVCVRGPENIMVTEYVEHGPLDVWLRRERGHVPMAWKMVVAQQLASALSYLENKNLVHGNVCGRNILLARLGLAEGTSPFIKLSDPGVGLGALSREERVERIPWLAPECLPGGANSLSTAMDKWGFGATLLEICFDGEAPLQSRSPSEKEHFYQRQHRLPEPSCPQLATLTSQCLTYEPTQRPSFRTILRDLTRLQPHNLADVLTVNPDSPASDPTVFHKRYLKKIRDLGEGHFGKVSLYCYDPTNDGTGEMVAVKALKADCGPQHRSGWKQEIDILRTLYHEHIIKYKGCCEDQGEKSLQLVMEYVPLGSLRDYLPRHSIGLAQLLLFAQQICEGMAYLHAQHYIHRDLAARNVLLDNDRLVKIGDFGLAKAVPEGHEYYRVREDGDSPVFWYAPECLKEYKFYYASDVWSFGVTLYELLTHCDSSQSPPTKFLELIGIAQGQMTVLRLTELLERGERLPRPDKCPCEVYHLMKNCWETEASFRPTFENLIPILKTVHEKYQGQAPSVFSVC
Experimental: as §1, §2, §3, §4, §5, §6, §7, §8, §9

[4] = target: JAK1 (Homo sapiens, UniProt P23458); assay: Kinase activity test (γ33P-ATP isotopic method), JAK1; type: biochemical; details: for IC50: 33P-ATP 10 μM, 2 h reaction; for activity in inhibiting the JAK1 kinase compared with Tofacitinib (in words): conclusion from Table 1
JAK1, sequence (P23458 whole entry): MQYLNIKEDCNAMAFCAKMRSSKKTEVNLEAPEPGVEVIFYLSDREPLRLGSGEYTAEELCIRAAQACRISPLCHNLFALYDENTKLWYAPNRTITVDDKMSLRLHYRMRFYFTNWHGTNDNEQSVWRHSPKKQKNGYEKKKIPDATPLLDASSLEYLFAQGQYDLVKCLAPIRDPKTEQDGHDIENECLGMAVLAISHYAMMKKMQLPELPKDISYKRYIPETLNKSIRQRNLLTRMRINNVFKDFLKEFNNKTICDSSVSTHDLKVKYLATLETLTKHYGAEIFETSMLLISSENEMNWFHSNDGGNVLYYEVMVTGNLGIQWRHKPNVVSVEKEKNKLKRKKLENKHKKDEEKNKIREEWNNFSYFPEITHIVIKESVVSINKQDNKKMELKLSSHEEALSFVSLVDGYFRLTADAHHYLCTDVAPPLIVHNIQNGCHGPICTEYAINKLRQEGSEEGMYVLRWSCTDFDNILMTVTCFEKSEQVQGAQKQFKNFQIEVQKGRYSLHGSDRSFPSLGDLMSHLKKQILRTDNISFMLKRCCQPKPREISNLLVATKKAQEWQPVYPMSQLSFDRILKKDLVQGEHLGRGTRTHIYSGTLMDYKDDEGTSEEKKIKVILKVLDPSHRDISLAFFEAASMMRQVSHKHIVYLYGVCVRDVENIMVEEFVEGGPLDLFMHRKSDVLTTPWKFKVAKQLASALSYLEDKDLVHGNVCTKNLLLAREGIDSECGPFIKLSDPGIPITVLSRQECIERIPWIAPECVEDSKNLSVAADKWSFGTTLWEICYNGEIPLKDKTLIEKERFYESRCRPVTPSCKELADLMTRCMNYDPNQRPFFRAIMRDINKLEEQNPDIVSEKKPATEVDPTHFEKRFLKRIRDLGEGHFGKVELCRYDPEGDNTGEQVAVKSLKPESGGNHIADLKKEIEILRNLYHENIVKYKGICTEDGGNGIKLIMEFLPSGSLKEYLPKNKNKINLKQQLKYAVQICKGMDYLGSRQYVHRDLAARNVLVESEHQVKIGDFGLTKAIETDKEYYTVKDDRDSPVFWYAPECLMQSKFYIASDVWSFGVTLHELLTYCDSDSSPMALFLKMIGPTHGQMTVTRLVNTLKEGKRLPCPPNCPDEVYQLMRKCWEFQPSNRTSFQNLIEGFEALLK
Experimental: as §1, §2, §3, §4, §5, §6, §7, §8, §9

[5] = Liver microsome test (metabolic stability); type: in vitro ADME, human; details: for Remaining % (60 min) / half-life at 1 μmol/L / microsomal CLint at 1 μmol/L: human liver microsomes 0.5 mg/mL protein, compound 1 μmol/L, 37° C.; for half-life at 1 μmol/L / microsomal CLint at 1 μmol/L: pH 7.4; for microsomal CLint at 1 μmol/L: read-out: Clint (μL/min/mg protein)
Experimental: In an incubation system with a total volume of 250 μL, an incubation solution of hum an liver microsomes containing 0.5 mg/mL protein was formulated with a 50 mmol/L PBS buffer (pH=7.4). Before the start of incubation, 2.5 μL of a 100 μmol/L compound to be tested was mixed with 197.5 μL of the above incubation buffer, pre-incubated for 5 min in a 37° C. water bath, and then added with 50 μL of a reducing coenzyme II solution (5 mmol/L) that was likewise pre-incubated for 5 min to start a reaction (in the reaction system, the protein content of liver microsomes from various species was 0.5 g/L, and the final concentration of the compound to be tested was 1 μmol/L), incubated in a 37° C. water bath with shaking, and taken out at 0, 5, 15, 30, and 60 min respectively. 600 μL of a methanol solution of mixed positive and negative internal standards with internal standards Terfenadine (positive ion internal standard, 25 ng/mL) and Tolbutamide (negative ion internal standard, 50 ng/mL) was immediately added to terminate the reaction. The incubation solution after termination was shaken for 2 min and centrifuged (4° C., 16000 r/min) for 10 min, and the supernatant was taken for LC-MS/MS detection to quantitatively analyze the remaining amount of the parent drug. (DMSO=0.1%).
The concentration of the compound at 0 mi incubation was regarded as 100%, and the concentrations at other incubation time points were converted into the remaining percentages. The natural logarithm of the remaining percentage at each time point was linearly regressed against the incubation time, and the slope k was calculated. According to the formula T1/2=−0.693/k, the in vitro half-life was calculated. Clearance in liver microsomes (CLint (μL/min/mg protein)=Ln (2)*1000/T1/2 (min/Protein Conc (mg/ml)).

[6] = system: DSS induced mouse ulcerative colitis model; assay: Efficacy test in DSS induced mouse ulcerative colitis model; type: in vivo; details: for DAI score on day 8: once a day, mouse DSS model, DAI range 0-4
Source text: Mice of 6-7 weeks old were randomly grouped, 6 mice per group. Purified water was provided ad libitum to the mice in a negative control group, and a 2% solution of dextran sulfate sodium (DSS) was provided ad libitum to the mice in other groups, for 7 consecutive days. During the modeling, medication was given according to the groups, once a day for 7 days (the treatment groups and the mouse numbers can be adjusted according to the specific situation). Within 8-10 days later, the DSS-containing water was replaced with purified water, provided ad libitum to the mice. The normal administration continued for 3 days.
From the first day of administration, the general conditions such as metal state, eating, drinking and activities of the mice were respectively observed every day, the mice were weighed every day, and the animal stools were collected, evaluated for their traits and subjected to the occult blood test. The disease activity index (DAI) of experimental animals within 1-10 days were comprehensively assessed.
Scoring was performed according to the above-mentioned standards. The disease activity index (DAI) of each mouse was obtained by summing the scores of weight loss, stool trait and occult blood condition, to evaluate the disease activity. DAI=(score of weight loss+score of stool trait+score of bloody stool)/3, ranging from 0-4.
The experimental data was processed statistically, and the data are all expressed as mean±SD or mean±SME. The SPSS13.0 software was used for statistical analysis, and the differences among the groups were compared with t test (equal variance) or t′ test (unequal variance).

Row | IC50 [1] | IC50 [2] | IC50 [3] | IC50 [4] | Remaining % (60 min) [5] | half-life at 1 μmol/L [5] | microsomal CLint at 1 μmol/L [5] | metabolic stability in liver microsomes (in words) ([5]; human liver microsomes, conclusion from Table 2) | Structure (SMILES) | DAI score on day 8 ([6]; 5 mg/kg group) | DAI score on day 8 ([6]; 15 mg/kg group) | effect on DSS induced enteritis in mice (in words) ([6]; relatively low dose) | activity in inhibiting the JAK1 kinase compared with Tofacitinib (in words) [4]
1 | 15.9 nM | 54.8 nM | 34.7 nM | 1.19 nM |  |  |  |  | CCCNC(=O)[C@H]1CCCN(Nc2c(C(N)=O)cnc3[nH]ccc23)C1 [Example 5, (S)-4-(3-(n-propylcarbamoyl)piperidine-1-amino)-1H-7-azaindole-5-carboxamide] |  |  |  | 
2 |  |  |  |  | 80.7% | 3.3 h | 7 µL/min/mg |  | C[C@@H]1CCN(C(=O)CC#N)C[C@@H]1N(C)c1ncnc2[nH]ccc12 [Tofacitinib, reference compound] | 3.5 |  |  | 
3 | 2.7 nM | 2.26 nM | 3.28 nM | 0.29 nM | 59.0% | 1.36 h | 17 µL/min/mg | excellent metabolic activity in liver | NC(=O)c1cnc2[nH]ccc2c1NN1CCC[C@H](C(=O)NCC(F)(F)F)C1 [Example 1, (S)-4-(3-(2,2,2-trifluoroethylcarbamoyl)piperidine-1-amino)-1H-7-azaindole-5-carboxamide] | 2.8 | 2 | significant effect in inhibiting the DSS induced enteritis in mice | higher activity in inhibiting the JAK1 kinase than the positive drug control Tofacitinib
4 | 5.97 nM | 16.7 nM | 19 nM | 1.1 nM |  |  |  |  | CC(C)(C)OC(=O)N1CC2CN(Nc3c(C(N)=O)cnc4[nH]ccc34)CC2C1 (stereo not shown) [Example 12] |  |  |  | 
5 | 8.69 nM | 11.6 nM | 9.93 nM | 0.41 nM |  |  |  |  | NC(=O)c1cnc2[nH]ccc2c1NN1CCC[C@@H](C(=O)NCC(F)(F)F)C1 [Example 3, (R)-4-(3-(2,2,2-trifluoroethylcarbamoyl)piperidine-1-amino)-1H-7-azaindole-5-carboxamide] |  |  |  | higher activity in inhibiting the JAK1 kinase than the positive drug control Tofacitinib

Row | Structure (SMILES) | IC50 [1] | IC50 [2] | IC50 [3] | IC50 [4] | Remaining % (60 min) [5] | half-life at 1 μmol/L [5] | microsomal CLint at 1 μmol/L [5] | metabolic stability in liver microsomes (in words) ([5]; human liver microsomes, conclusion from Table 2) | DAI score on day 8 ([6]; 5 mg/kg group) | DAI score on day 8 ([6]; 15 mg/kg group) | effect on DSS induced enteritis in mice (in words) ([6]; relatively low dose) | activity in inhibiting the JAK1 kinase compared with Tofacitinib (in words) [4]
6 | N#CCNC(=O)[C@H]1CCCN(Nc2c(C(N)=O)cnc3[nH]ccc23)C1 [Example 7] | 0.71 nM | 1.32 nM | 1.98 nM | 0.39 nM |  |  |  |  |  |  |  | higher activity in inhibiting the JAK1 kinase than the positive drug control Tofacitinib
